Test [1] relates to MDA-MB-231. Kind of test: Antiproliferative activity against human MDA-MB-231 cells assessed as reduction in cell viability after 72 hrs by MTT assay. The test is classed as functional, cell-based. Particulars: MDA-MB-231, 72 h, read-out: IC50. For orientation: Formazan colour is commonly taken as a measure of viable cells.
Another test concerns IMR-32. Kind of test: Antiproliferative activity against human IMR32 cells assessed as reduction in cell viability after 72 hrs by MTT assay. The test is classed as functional, cell-based. Conditions: IMR-32, 72 h.
Another test relates to U-87 MG. Kind of test: Antiproliferative activity against human U87 cells assessed as reduction in cell viability after 72 hrs by MTT assay. It is filed as functional, cell-based, U-87MG ATCC.
Test [2] relates to MCF7. Kind of test: Antiproliferative activity against human MCF7 cells assessed as reduction in cell viability after 48 hrs by SRB assay. It is filed as functional, cell-based. Particulars: MCF7, 48 h. A general note: Sulforhodamine B stains cellular protein and so reports cell mass.
The subject of test [3] is A549. Kind of test: Antiproliferative activity against human A549 cells assessed as reduction in cell viability after 48 hrs by SRB assay. Particulars: A549, 48 h. The test is classed as functional, cell-based.
Test [4] has as its system HCT-116. Kind of test: Antiproliferative activity against human HCT116 cells assessed as reduction in cell viability after 48 hrs by SRB assay. The test is classed as functional, cell-based. Particulars: HCT-116, 48 h.
Test [5] has as its system HT-29. Kind of test: Antiproliferative activity against human HT-29 cells assessed as reduction in cell viability after 48 hrs by SRB assay. It is filed as functional, cell-based. Conditions: HT-29, 48 h.
Test [6] deals with HT-29. Kind of test: Antiproliferative activity against human HT-29 cells assessed as reduction in cell viability after 72 hrs by MTT assay. The test is classed as functional, cell-based. Conditions: HT-29, 72 h.
The subject of test [7] is MCF7. Kind of test: Antiproliferative activity against human MCF7 cells assessed as reduction in cell viability after 72 hrs by MTT assay. The test is classed as functional, cell-based. Conditions: MCF7, 72 h.
The next test deals with MOLT-4. Kind of test: Antiproliferative activity against human MOLT4 cells assessed as reduction in cell viability after 72 hrs by MTT assay. It is filed as functional, cell-based. Particulars: MOLT-4, 72 h.
A further test relates to HBL-100. Kind of test: Antiproliferative activity against human HBL100 cells assessed as reduction in cell viability after 48 hrs by MTT assay. Particulars: HBL-100, 48 h. The test is classed as functional, cell-based.
Test [8] deals with HCT-116. Kind of test: Antiproliferative activity against human HCT116 cells assessed as reduction in cell viability after 48 hrs by MTT assay. It is filed as functional, cell-based. Particulars: HCT-116, 48 h.
Test [9] concerns HT-29. Kind of test: Antiproliferative activity against human HT-29 cells assessed as reduction in cell viability after 48 hrs by MTT assay. It is filed as functional, cell-based. Particulars: HT-29, 48 h.
In test [10] the test system is A549. Kind of test: Antiproliferative activity against human A549 cells assessed as reduction in cell viability after 48 hrs by MTT assay. Conditions: A549, 48 h. The test is classed as functional, cell-based.
Test [11] deals with HT-29. Kind of test: Potency index, ratio of Sorafenib IC50 to test compound IC50 for antiproliferative activity against human HT-29 cells. It is filed as functional.
The test system of test [12] is MCF7. Kind of test: Potency index, ratio of Sorafenib IC50 to test compound IC50 for antiproliferative activity against human MCF7 cells. The test is classed as functional.
A further test concerns PC-3. Kind of test: cells. The test is classed as functional, cell-based. Particulars: Homo sapiens, PC-3, 48 h.
The subject of another test is HGC-27. Kind of test: Antiproliferative activity against human HGC27 cells assessed as reduction in cell viability after 48 hrs by MTT assay. It is filed as functional, cell-based. Conditions: HGC-27, 48 h.
Test [13] has as its system MDA-MB-231. Kind of test: Antiproliferative activity against human MDA-MB-231 cells assessed as reduction in cell viability after 24 hrs by MTT assay. The test is classed as functional, cell-based. Particulars: MDA-MB-231, 24 h.
Test [14] has as its system MCF7. Kind of test: Antiproliferative activity against human MCF7 cells assessed as reduction in cell viability after 24 hrs by MTT assay. It is filed as functional, cell-based. Conditions: MCF7, 24 h.
The next test deals with HEK293. Kind of test: Cytotoxicity against HEK293 cells by MTT assay. It is filed as cell-based. Conditions: Homo sapiens.
Test [15] relates to MDA-MB-231. Kind of test: Antiproliferative activity against human MDA-MB-231 cells by MTT assay. The test is classed as functional, cell-based.
The next test has as its system HepG2. Kind of test: Antiproliferative activity against human HepG2 cells by SRB assay. It is filed as functional, cell-based.
For test [16], the system named is A549. Kind of test: Antiproliferative activity against human A549 cells by SRB assay. The test is classed as functional, cell-based.
Test [17] has as its system MCF7. Kind of test: Antiproliferative activity against human MCF7 cells by SRB assay. The test is classed as functional, cell-based.
The test system of a further test is SK-OV-3. Kind of test: Antiproliferative activity against human SKOV3 cells by SRB assay. The test is classed as functional, cell-based.
The next test relates to HeLa. Kind of test: Antiproliferative activity against human HeLa cells by SRB assay. The test is classed as functional, cell-based.
In a further test the test system is MCF7-DOX. Kind of test: Antiproliferative activity against human MCF7/Dox cells by SRB assay. The test is classed as functional, cell-based.
Another test relates to DU-145. Kind of test: Antiproliferative activity against human DU145 cells by SRB assay. It is filed as functional, cell-based.

The IC50 is the point on the concentration scale where inhibition reaches its midpoint.

SMILES strings stand for the structures.

Description for PC-3: Antiproliferative activity against human PC3 cells assessed as reduction in cell viability after 48 hrs by MTT assay

`Cc1n[nH]c(=O)c2c1c1cc(F)ccc1n2Cc1cn(C2CCCCC2)nn1`: the half-inhibitory concentration (IC50) in the test with MDA-MB-231 [1], with IMR-32 and in the test on U-87 MG was 0.042 to 0.478 µM in each case.
Regarding `Cc1ccc(-c2nn(-c3ccccc3)cc2/C=C/C(=O)OCc2cn(-c3ccc([N+](=O)[O-])cc3)nn2)cc1`, the IC50 in the test with MCF7 [2], in the test on A549 [3], in the test on HCT-116 [4] and in the test with HT-29 [5] was 1.76 to 9.46 µM each time.
Regarding `O=C1C=C(NCc2cn(Cc3ccc(C(F)(F)F)cc3)nn2)C(=O)c2ccccc21`, the IC50 in the test with HT-29 [6], with MCF7 [7] and in the test with MOLT-4 was 6.8 to 10.4 µM in each case.
In the case of `COc1cc(-n2cc(CO[C@H]3CC[C@@]4(C)C(=CC[C@H]5[C@@H]6C[C@@H]7O[C@]8(CC[C@@H](C)CO8)[C@@H](C)[C@@H]7[C@@]6(C)CC[C@@H]54)C3)nn2)cc(OC)c1OC`, the IC50 in the test on HBL-100, with HCT-116 [8], in the test on HT-29 [9] and with A549 [10] was 5.16 to 9.44 µM in each case.
For the compound `CNC(=O)c1cc(Oc2ccc(-n3cc(-c4cccs4)nn3)cc2)ccn1`, the “Ratio IC50” value in the test with HT-29 [11] and in the test with MCF7 [12] was 6.2 - 131.2 in each case. In addition, the IC50 in the test with HT-29 [6] and with MCF7 [7] was 0.2 to 0.84 µM throughout.
For the compound `CNC(=O)c1cc(Oc2ccc(-n3cc(-c4cccc(F)c4)nn3)cc2)ccn1`, the “Ratio IC50” value in the test with HT-29 [11] and with MCF7 [12] was 6.2 - 131.2 each time. Also, the IC50 in the test on HT-29 [6] and in the test with MCF7 [7] was 0.2 to 0.84 µM each time.
For the compound `COc1cc(-c2nc(Cn3cc(CN4C(=O)c5ccc(C)cc5C4=O)nn3)cc3c2[nH]c2ccccc23)cc(OC)c1OC`, the IC50 with PC-3, in the test with MCF7 [7], in the test with HT-29 [9] and in the test on HGC-27 was 3.67 to 26.5 µM in each case.
Turning to `Cc1n[nH]c(=O)c2c1c1cc(F)ccc1n2Cc1cn(Cc2ccc(F)cc2)nn1`, the IC50 in the test with MDA-MB-231 [1], with IMR-32 and with U-87 MG was 0.042 to 0.478 µM each time.
As to `COc1ccc(-c2nc(Cn3cc(CN4C(=O)c5cccc6cccc(c56)C4=O)nn3)cc3c2[nH]c2ccccc23)cc1OC`, the IC50 in the test with PC-3, in the test with MCF7 [7], with HT-29 [9] and in the test with HGC-27 was 3.67 to 26.5 µM in each case.
As for `Cc1ncc([N+](=O)[O-])n1Cc1cn(CCCCCN2C(=O)C(=O)c3cc(Cl)ccc32)nn1`, the IC50 was 16.1 µM in the test with MDA-MB-231 [13] and 20.8 µM with MCF7 [14].
Regarding `Cc1ccc(-n2nc(N)c(C(=O)NCCNC(=O)c3nn(-c4ccc(C)cc4)nc3N)n2)cc1`, the IC50 in the test on HEK293 is greater than 50 µM; in the test on MDA-MB-231 [15], 7 µM.
Consider `Cc1ccc2c(c1)/C(=N/O)C(=O)N2CCOCCn1cc(COc2ccc3c(C)cc(=O)oc3c2)nn1`, for which the IC50 with HepG2, in the test with A549 [16], with MCF7 [17], in the test with SK-OV-3, in the test with HeLa and in the test with MCF7-DOX was 15.5 to 31.5 µM each time. This compound registered an IC50 with DU-145 of 15.5 to 31.5 µM.

For the origin of these results see ChEMBL document CHEMBL4342418, “1,2,3-Triazole-containing hybrids as potential anticancer agents: Current developments, action mechanisms and structure-activity relationships” (Eur J Med Chem, 2019).
